Experimental data from US5637085A, “Method of cancer tumor treatment by slow release delivery of 1,2,4-benzotriazine oxides to tumor site” (priority 1995, dated 1997).
“And” between values parts separate entries of the source, which are not always exact repeats. Equal values may be shown once.

Legend:
U251 GBM xenograft [1] = test: Experiment B: U251 xenograft response to systemic and intratumoral polymer delivery of tirapazamine (mean tumor volume doubling time); assay type: in vivo, human U251 in male Balb/c athymic nude mice
Protocol: (§1) Tumor Cell line: The human GBM cell line (U251) used in the study was obtained from the DCT Tumor Repository, National Cancer Institute. Cells were cultured in Delbecco's MEM/Ham's F-12 nutrient mixture with 10% fetal bovine serum (GIBCO) and […] (penicillin and streptomycin) in 12×80 mm plastic culture dishes or T25 culture flasks. Cells were incubated (37° C.) in a mixture of 5% carbon dioxide and 95% air. Media were changed twice weekly and cells were passaged at confluence with 0.5% trypsin.
(§2) Nude mouse xenonaft: Six week old male Balb/c athymic nude mice received subcutaneous injections of 4×10^6 (experiment A) and 5×10^6 (experiment B) U251 cells in the left posterior extremity. Tumors were visible after 6 to 8 days. Tumor sizes ranged from 0.51-1.2 cm^3 at the start of the treatment. […] Mice were sacrificed after tumors reached at least twice their original tumor volume.
(§3) Systemic Administration of Tirapazamine: The drug was supplied by Sanoff Winthrop, Collegeville, Pa. Tirapazamine was dissolved in physiological saline at a concentration of […] and intraperitoneal (IP) injections were given in a volume of 0.02 ml/g body weight (0.08 mmole/kg). Animals in experiment A received daily injections, and animals in experiment B received injections twice daily over 3 consecutive days for a total of 6 injections.
Tirapazamine Polymer Formulation: 2 mg tirapazamine and 8 mg PCPP:SA polymer were combined in methylene chloride ([…] wt/wt). The solvents were removed by desiccation under vacuum. The tirapazamine containing polymers were then pressed into discs measuring 3 mm in diameter and 1 mm in height. Each disc weighed 10 mg.
(§4) Implantation of Polymer Discs:. For surgical implantation of polymer discs, animals were anesthetized with methoxyflurane, a skin incision was made next to the xenograft, and an empty disc or tirapazamine disc was inserted in the center of the tumor via a single 3-4 mm incision. The incision was closed using wound clips. Contralateral flank polymer discs were placed subcutaneously using the same technique.
(§5) In Vivo Irradiation: A Mark I Irradiator (Model 68, J. L. Shepherd and Assoc.) was used for in vivo irradiation. The dose to the xenograft was calibrated using TLD dosimetry and confirmed with radiochromic dye media (Gafchromic) mouthed in polystyrene mouse phantoms. The tumor bearing flank was selectively irradiated, with shielding of the mouse trunk and head. In experiment A, irradiation began on the first day of IP tirapazamine injection, and animals received 2 Gy×6 consecutive daily fractions. In experiment B, irradiation and systemic tirapazamine administration began one day following polymer disc implantation and animals received 2 Gy twice daily (separated by 5-6 hours) over 3 consecutive days for a total of 6 fractions. Radiation treatments were given 5-20 minutes following IP drag or saline injections.
(§6) Tumor Volumetrics: Tumor length (L), width (W), and height (H) were measured twice weekly and tumor volumes were calculated as pi/6×L×W×H. The logarithm of the ratio of this product (V) to the initial product (VO) for each animal was calculated and the mean logarithm of this ratio for each treatment group was plotted versus time. The time of regrowth to twice the original tumor volume (V/VO=2; log V/VO=0.3) for each animal and treatment group was calculated from the plot of log V/VO vs. time. Mean tumor volume doubling time (VDT) was used as the endpoint to determine efficacy of a given treatment arm on U251 xenograft tumors. Each animal was weighed bi-weekly to assess possible toxicity to treatment.
Outcomes among experimental groups were compared using the two tailed Student's test.
Intralesional delivery of tirapazamine by polymer implants: After establishing the antitumor effect of systemic administration of tirapazamine on GBM xenografts, experiment B was done to evaluate intralesional polymer delivery of tirapazamine alone or combined with irradiation. […]

U251 GBM xenograft [2] = test: Experiment A: U251 xenograft response to systemic delivery of tirapazamine (mean tumor volume doubling time); assay type: in vivo, human U251 in male Balb/c athymic nude mice
Protocol: as §1, §2, §3, §5
as §6, with “Each animal was weighed bi-weekly to assess possible toxicity to treatment.” left out

[3] = test system: FSalIC Murine Fibrosarcoma; details: SR-4233 just before single-dose cyclophosphamide, carmustine or melphalan; cited from earlier work
[4] = Toxicity, experiment B: mean low and final animal weights as a fraction of the pretreatment weight; assay type: in vivo, male Balb/c athymic nude mice
Description: as §2, §3, §4, §5, §6
The weight losses were transient, with all groups exceeding their pretreatment weights prior to sacrifice.

[5] = test system: mouse squamous cell VII tumors; details: cited from earlier work
[6] = test system: mouse SCCVII and other tumors; details: multiple injections in conjunction with fractionated irradiation; cited from earlier work
[7] = contralateral flank drug implant and tumor empty implant + radiation, group 4
[8] = tumor drug implant + IP tirapazamine + radiation, group 7
[9] = tumor drug implant + IP tirapazamine, no radiation, group 2
[10] = tumor drug implant + radiation, group 5
[11] = tumor empty implant + IP tirapazamine + radiation, group 6
[12] = within one hour of injecting tirapazamine

## Nc1n[n+]([O-])c2ccccc2[n+]1[O-] [tirapazamine, 3-amino-1,2,4-benzotriazine-1,4-dioxide]
U251 GBM xenograft [1]; contralateral flank drug implant and tumor empty implant + radiation 2Gy bid × 3 days, group 4
  Mean xenograft tumor doubling time (VDT) ± SEM: 16.4 ± 1.57 days
U251 GBM xenograft [1]; group 7 vs IP tirapazamine alone plus radiation, P=0.016
  growth delay: 11.8 days
U251 GBM xenograft [1]; group 7 vs tumor drug implant alone plus radiation, P=0.004
  growth delay: 12.8 days
U251 GBM xenograft [1]; tumor drug implant + IP tirapazamine + radiation (group 7) vs radiation alone controls, P<0.001
  growth delay: 16.5 days
U251 GBM xenograft [1]; tumor drug implant + IP tirapazamine bid + radiation 2Gy bid × 3 days, group 7
  Mean xenograft tumor doubling time (VDT) ± SEM: 35.8 ± 2.0 days
U251 GBM xenograft [1]; tumor drug implant + IP tirapazamine bid, no radiation, group 2
  Mean xenograft tumor doubling time (VDT) ± SEM: 10.5 ± .87 days
U251 GBM xenograft [1]; tumor drug implant + IP tirapazamine, no radiation vs tumor empty polymer implant (group 1), P=0.15
  growth delay: 3.5 days
U251 GBM xenograft [1]; tumor drug implant + radiation 2Gy bid × 3 days, no IP tirapazamine, group 5
  Mean xenograft tumor doubling time (VDT) ± SEM: 23.0 ± 2.49 days
U251 GBM xenograft [1]; tumor drug implant plus radiation (group 5) vs tumor empty implant plus contralateral drug implant with radiation, P=0.055
  growth delay: 6.6 days
U251 GBM xenograft [1]; tumor drug implant plus radiation (group 5) vs tumor empty polymer implant plus radiation, P=0.24
  growth delay: 3.7 days
U251 GBM xenograft [1]; tumor empty implant + IP tirapazamine bid + radiation 2Gy bid × 3 days, group 6
  Mean xenograft tumor doubling time (VDT) ± SEM: 24.8 ± 3.0 days
U251 GBM xenograft [1]; tumor empty implant + IP tirapazamine with radiation (group 6) vs tumor empty implant plus radiation, P=0.15
  growth delay: 5.5 days
U251 GBM xenograft [2]; IP tirapazamine alone, no radiation
  effect on mean volume doubling time (VDT): no effect
U251 GBM xenograft [2]; IP tirapazamine daily × 6 (0.08 mmole/kg) plus radiation 2Gy daily × 6, group 4
  Mean xenograft tumor volume doubling time (VDT) ± SEM: 35 days and 35 ± 2.5 days
U251 GBM xenograft [2]; IP tirapazamine daily × 6 (0.08 mmole/kg), no radiation, group 2
  Mean xenograft tumor volume doubling time (VDT) ± SEM: 12 days and 12 ± 0.6 days
U251 GBM xenograft [2]; fractionated radiation (2 Gy×6) plus IP tirapazamine, 12 days for fractionated radiation alone
  lengthening of mean VDT: 25 days
[3]
  cytotoxic effects on tumor cells in combination with alkylating agents: marked dose enhancement leading to synergistic cytotoxic effects on tumor cells
[4]; combination of IP and polymer tirapazamine, transient, toxicity primarily associated with the IP treatments
  systemic toxicity (weight loss): produced systemic toxicity
[4]; [7]
  Final body weight/Pretreatment weight (± SEM): 1.08 ± .02
  Low weight post treatment/Pretreatment weight (± SEM): 0.96 ± .02
[4]; [8]
  Final body weight/Pretreatment weight (± SEM): 1.06 ± .03
  Low weight post treatment/Pretreatment weight (± SEM): 0.85 ± .03
[4]; [9]
  Final body weight/Pretreatment weight (± SEM): 1.05 ± .04
  Low weight post treatment/Pretreatment weight (± SEM): 0.95 ± .01
[4]; [10]
  Final body weight/Pretreatment weight (± SEM): 1.06 ± .01
  Low weight post treatment/Pretreatment weight (± SEM): 0.95 ± .01
[4]; [11]
  Final body weight/Pretreatment weight (± SEM): 1.09 ± .03
  Low weight post treatment/Pretreatment weight (± SEM): 0.89 ± .01
[5]; after injecting tirapazamine
  time of return of hypoxic fraction to pretreatment levels: 3 to 5 h
[5]; [12]
  hypoxic fraction: 0.57%
  hypoxic fraction, % of pretreatment levels: about 7%
[6]
  tumor cell kill with fractionated irradiation: increases tumor cell kill while sparing normal tissue
